Test results reported in patent publication US5731334A, “Method for treating cancer using taxoid onium salt prodrugs” (priority 1995, dated 1998).

Tests used:
[1] = test system: A-549 lung carcinoma cells; assay: XTT dye binding cytotoxicity assay, A-549; type: cell-based; details: Homo sapiens, A549; A-549, lung carcinoma; 72 h; read-out: IC50
Protocol: (§1) All cell lines described herein were obtained from the ATCC and maintained in media formulations as recommended by the supplier. The cell lines were tested for mycoplasma contamination prior to incubation at 37° C. in 5% carbon dioxide. Normal human dermal fibroblasts, peripheral blood lymphoblasts and mammary epithelial cells were obtained from Clonogenic Cor., San Diego, Calif. and were maintained under the above incubation conditions in special media provided by the supplier.
(§2) Antiproliferative activities of the onium salts were determined using the XTT dye binding assay. Cells were harvested with trypsin/EDTA (Irvine Scientific), washed, resuspended in the appropriate medium, and counted in a hemocytometer using Trypan Blue to determine viability. Then 10^4 cells/well were added to 96 well microtiter plates and incubated for 24 hours before addition of drug at concentrations in the range of 10^-4 to 10^-13 molar by direct addition from DMSO solutions. After 72 hours, XTT binding dye was added and incubation was continued for 4 hours. The inhibition of cell proliferation was quantified using a Molecular Devices Microplate Reader. The absorbance of XTT was measured at […]. The concentration of drug which inhibited growth of cells by 50% was calculated from duplicated determinations.

L-1210 leukemia cells = assay: XTT dye binding cytotoxicity assay, L-1210; type: cell-based, mouse; details: L1210; L-1210, mouse leukemia; 72 h; read-out: IC50
Protocol: as §1, §2

human tumor xenografts = assay: In vivo antitumor effect (human tumor xenografts in nude mice)
[2] = test system: Ovcar 3 ovarian carcinoma tumor xenograft
Protocol: (§3) Athymic nude mice were purchased from Harlan-Sprague-Dawley. The animals were housed in microisolated cases under positive air pressure and all manipulations and drug treatments were performed in a laminar flow cabinet. Tumor cells were grown under the above tissue culture conditions. Cell suspensions in RPMI medium were injected S./C. Treatment was started one day after inoculation by i.p. injection of 400 μl drug solutions. Tumors were measured 3 times weekly in two dimensions, using calipers and tumor volume as calculated using the formula (V=w^2 ×L×(3.142).
The tumor model was generated from an ATTC Ovcar 3 carcinoma cell line that was maintained under standard cell proliferation conditions, viz. 37° C., 5% carbon dioxide in sterile air. Each cohort was comprised of eight randomly chosen female athymic nude mice, for a total population size of twenty four. Hemocytometer counted cells, suspended in Hanks medium (Gibco, Grand Island N.Y.) were implanted S.C. (10^6 cells in 0.4 mL per mouse). Solid tumor growth was measured on each third day. Equimolar amounts of the test compounds (1.0 mM, 400 μL) were injected i.p. on days 1, 3, 5, 7, 9, and 11 using the following media:
(.quadrature.): Control, saline in 5× distilled water (D5W) […]

[3] = test system: Capan 1 pancreas cancer cells; assay: XTT dye binding cytotoxicity assay, Capan 1; type: cell-based; details: Homo sapiens; Capan 1, pancreas cancer; 72 h; read-out: IC50
Protocol: as §1, §2

[4] = test system: SIHA squamous carcinoma cells; assay: XTT dye binding cytotoxicity assay, SIHA; type: cell-based; details: Homo sapiens; SIHA, squamous carcinoma; 72 h; read-out: IC50
Protocol: as §1, §2

[5] = Plasma stability and prodrug reversion (ethyl acetate extraction, HPLC); details: human, plasma
tubulin = assay: Tubulin polymerization-depolymerization (microtubule assembly-disassembly) assay; type: biochemical, calf
[6] = test system: 786-0 renal cell carcinoma cells; assay: XTT dye binding cytotoxicity assay, 786-0; type: cell-based; details: Homo sapiens; 786-0, renal cell carcinoma; 72 h; read-out: IC50
Protocol: as §1, §2

[7] = test system: OVCAR-3 ovarian carcinoma cells; assay: XTT dye binding cytotoxicity assay, OVCAR-3; type: cell-based; details: Homo sapiens; OVCAR-3, ovarian carcinoma; 72 h; read-out: IC50
Protocol: as §1, §2

[8] = test system: HMEC mammary epithelial cells; assay: XTT dye binding cytotoxicity assay, HMEC; type: cell-based; details: Homo sapiens, mammary epithelial cells (untransformed), 72 h, read-out: IC50
Protocol: as §1, §2

U-2511 CNS cancer cells = assay: XTT dye binding cytotoxicity assay, U-2511; type: cell-based; details: Homo sapiens; U-2511, CNS cancer; 72 h; read-out: IC50
Protocol: as §1, §2

[9] = test system: SK-N-SH neuroblastoma cells; assay: XTT dye binding cytotoxicity assay, SK-N-SH; type: cell-based; details: Homo sapiens, neuroblastoma, 72 h, read-out: IC50
Protocol: as §1, §2

tumor cell lines = assay: Cytotoxicity, summary over tumor cell lines (XTT); type: cell-based, human and murine; details: on average
Protocol: Antiproliferative activities of the onium salts were determined using the XTT dye binding assay. Cells were harvested with trypsin/EDTA (Irvine Scientific), washed, resuspended in the appropriate medium, and counted in a hemocytometer using Trypan Blue to determine viability. […] After 72 hours, XTT binding dye was added and incubation was continued for 4 hours. The inhibition of cell proliferation was quantified using a Molecular Devices Microplate Reader. […] The concentration of drug which inhibited growth of cells by 50% was calculated from duplicated determinations.

[10] = test system: HT-29 colon carcinoma cells; assay: XTT dye binding cytotoxicity assay, HT-29; type: cell-based; details: Homo sapiens; HT-29, colon carcinoma; 72 h; read-out: IC50
Protocol: as §1, §2

[11] = test system: PC-3 prostate carcinoma tumor xenograft; details: in vivo
Protocol: as §3
The tumor model was generated from an ATTC PC-3 prostate carcinoma cell line that was maintained under standard cell proliferation conditions, viz. 37° C., 5% carbon dioxide in sterile air. Each cohort was comprised of eight randomly chosen female athymic nude mice, for a total population size of twenty four. Hemocytometer counted cells, suspended in Hanks mediun (Gibco, Grand Island N.Y.) were implanted S.C. (10^6 cells in 0.4 mL per mouse). Solid tumor growth was measured on each third day. Equimolar amounts of the test compounds (1.0 mM, 400 μL) were injected i.p. on days 1, 3, 5, 7, 9, and 11 using the following media:
(.smallcircle.): Control, 5% dextrose in 5× distilled water (5 DW)
(Δ): Taxol (18.0 mg/kg of animal weight or approximately 1.260 mg/m^2) suspended in Cremaphor/D5W
Inferences about efficacy were drawn by ANOVA followed by protected t-test. […] Data shown as mean value with standard error.

[12] = test system: HL-60 promyelocytic leukemia cells; assay: XTT dye binding cytotoxicity assay, HL-60; type: cell-based; details: Homo sapiens; HL-60, promyelocytic leukemia; 72 h; read-out: IC50
Protocol: as §1, §2

[13] = test system: CHO Chinese hamster ovary cells; assay: XTT dye binding cytotoxicity assay, CHO; type: cell-based; details: Cricetulus griseus; CHO, Chinese hamster ovary (untransformed); 72 h; read-out: IC50
Protocol: as §1, §2

SK-Mel-28 melanoma cells = assay: XTT dye binding cytotoxicity assay, SK-Mel-28; type: cell-based; details: Homo sapiens; SK-Mel-28, melanoma; 72 h; read-out: IC50
Protocol: as §1, §2

[14] = Stability in water, assay medium and storage solution; type: physicochemical
From the text: used and differing ultraviolet absorption maxima between the prodrug and the drug, the stability was easily assayed using UV detection. In all the ensuing studies, the only degradation products detected were the taxoids and the pyridinone that results from the hydrolysis of the onium salts. In water, these compounds show surprising stability for up to weeks depending upon the storage conditions. […] The fraction of ethyl acetated extractable material was between 18 and 23% for all onium salts and 95% for the present compounds.
FIG. 2 illustrates the results of GTP induced polymerization and calcium chloride induced depolymerization of tubulin in the presence of taxol and the 2'- and 7-MPA substituted derivatives.

[15] = In vivo elimination in BALB/C mice; details: 24 hours after injection
Protocol: C-2'-MPA-Taxol (1 mM in 0.9% saline solution, 400 μL) was injected along with tritiated taxol at 32000 cpm into normal BALB/C mice (4 mice each) housed in metabolic cages and the urine and feces were measured periodically in a scintillation counter using Achillea scintillation fluid.
The antitumor activity of the onium salts of taxol were assessed in nude mice bearing tumors of human A-549 lung adenocarcinomas, Ovcar-3 ovarian carcinoma, and PC-3 prostate carcinoma cells. […] FIG. 5 illustrates antiproliferation results for 2'-MPA-3-thiophene-taxol (4) and 2' MPA taxol (2) for the Ovcar-3 human tumor xenograft. […] FIG. 6, summarizes the results for a PC-3, prostate tumor model study. Taxol was compared with both the 2'- and 7-substituted oxonium salts. […] Tritiated taxol and 2' MPA-taxol were used in drug elimination experiments in normal BALB/C mice. In both groups of mice of four animals each, only 4-5% of the administered radioactivity was measured in the combined urine and feces 24 hours after injection.

## CC(=O)O[C@H]1C(=O)[C@@]2(C)[C@H]([C@H](OC(=O)c3ccccc3)[C@]3(O)C[C@H](OC(=O)[C@H](Oc4cccc[n+]4C)[C@@H](NC(=O)c4ccccc4)c4ccccc4)C(C)=C1C3(C)C)[C@]1(OC(C)=O)CO[C@@H]1C[C@@H]2O [Compound 2]
[1]
  IC50: 152 nM
L-1210 leukemia cells
  IC50: 12.8 nM
Human tumor xenografts
  in vivo antitumor efficacy in words: produced tumor regression with a high percentage of animals being free of measurable tumor masses at the end of the experiments
[2]; 1.0 mM, 400 μL i.p. days 1, 3, 5, 7, 9, 11
  tumor growth inhibition, Ovcar-3: complete inhibition of tumor growth
[2]; in vivo
  survival of animals, Ovcar-3: 100%
[3]
  IC50: 5.7 nM
[4]
  IC50: 3.78 nM
[5]
  half-life: 2.4 min
  recovery: 21%
tubulin
  tubulin binding in words: no tubulin binding
tubulin; CaCl2, 10^-6 M drug
  reversal to tubulin (calcium induced depolymerization): about 70%
[6]
  IC50: 27.4 nM
[7]
  IC50: 7.49 nM
[8]
  IC50: 127 nM
U-2511 CNS cancer cells
  IC50: 860 nM
[9]
  IC50: 3.19 nM
Tumor cell lines
  cytotoxicity relative to the C-7-isomer (3): about 10 fold
[10]
  IC50: 1.94 nM
[11]
  mice surviving treatment, PC-3: all of the mice given either the 2'- or 7-isomers survived
[12]
  IC50: 0.25 nM
[13]
  IC50: 214 nM
SK-Mel-28 melanoma cells
  IC50: 87.9 nM
[14]; 1-2% Tween #80 or Tween #20 with or without ethyl alcohol
  storage stability: stable and may stored without significant loss
[14]; HPLC analysis
  stability under the assembly-disassembly conditions: completely stable
[15]
  administered radioactivity in the combined urine and feces: 4-5%
